Test results from patent US9951044B2, “Quinazoline derivatives and their use as DNA methyltransferase inhibitors” (PIERRE FABRE MEDICAMENT, priority 2013, dated 2018).
pEC50: −log10 of the molar value. Read-outs that look alike come from different tables or passages of the source.

Tests used:
[1] = biological target: T1, human C-terminal DNMT3A (a.a. 623-908) (Homo sapiens, UniProt Q9Y6K1); test: DNMT3A assay (restriction-based fluorescence); format: biochemical; settings: for inhibition at 10 µM: read-out: DNMT3A (% of inhibition) 10 μM; for inhibition at 32 µM: read-out: DNMT3A (% of inhibition) 32 μM; for pEC50: concentration range in triplicates; for inhibition at 20 µM: compound at 20 μM
T1 construct: The human C-terminal DNMT3A (a.a. 623-908); made in house
T1 sequence (Q9Y6K1 627-912 limits assumed): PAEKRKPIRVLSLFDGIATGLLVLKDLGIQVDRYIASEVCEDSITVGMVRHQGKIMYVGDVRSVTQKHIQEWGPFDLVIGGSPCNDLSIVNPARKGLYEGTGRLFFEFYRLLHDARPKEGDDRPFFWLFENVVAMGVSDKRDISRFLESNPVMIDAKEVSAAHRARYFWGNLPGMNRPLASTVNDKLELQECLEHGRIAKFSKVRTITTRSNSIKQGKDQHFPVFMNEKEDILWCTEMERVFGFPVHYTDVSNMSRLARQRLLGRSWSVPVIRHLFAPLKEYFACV
Text: DNMT3A enzyme inhibition was adapted from the restriction-based fluorescence assay protocol described in Ceccaldi et al. (ChemBioChem 2011, 12, 1337-45). Briefly, a 5′-labelled biotin oligonucleotide is hybridized to its complementary strand labelled with 6-carboxyfluorescein at the 3′-end into a 384 well microplate (black Optiplates; Perkin Elmer) pre-coated with avidin. The duplex contains a unique CpG site overlapping with a restriction site of a methylation sensitive restriction enzyme. The human C-terminal DNMT3A (a.a. 623-908), produced as described in Gros et al. (Nucleic Acids Research 2013 Aug. 25), was added in each well (200 ng/well) and mixed with the chemical compounds at desired concentrations and freshly prepared AdoMet (20 μM final concentration) to start the reaction in a total volume of 50 μL. After 1 hour incubation at 37° C. each well were washed three times with PBS, Tween-20 0.05%, NaCl (500 mM) and three more times with PBST. Specific fluorescent signals were detected with the methylation-sensitive restriction enzyme HpyCH4IV (NEB) as described and measured on a Perkin Elmer Envision detector. The percentage of inhibition is reported. The formula used to calculate the percentage of inhibition is [(X−Y)/X]×100, where X is the signal determined in the absence of the inhibitor and Y is the signal obtained in the presence of the inhibitor. The concentration at which 50% of efficacy of inhibition is observed (EC50) was determined by analysis of a concentration range of the tested compound in triplicates. The non-linear regression fittings with sigmoidal dose-response (variable slope) were performed with GraphPad Prism 4.03 (GraphPad Software).

[2] = biological target: T2, His-DNMT1 (182 kDa, human) (Homo sapiens, UniProt P26358); test: DNMT1 assay ([methyl-3H] SAM Flashplate); format: biochemical; settings: for inhibition at 100 µM: read-out: DNMT1 (% of inhibition) 100 μM; for inhibition at 32 µM: read-out: DNMT1 (% of inhibition) 32 μM
T2 construct: His; made in house
T2 sequence (P26358 whole entry): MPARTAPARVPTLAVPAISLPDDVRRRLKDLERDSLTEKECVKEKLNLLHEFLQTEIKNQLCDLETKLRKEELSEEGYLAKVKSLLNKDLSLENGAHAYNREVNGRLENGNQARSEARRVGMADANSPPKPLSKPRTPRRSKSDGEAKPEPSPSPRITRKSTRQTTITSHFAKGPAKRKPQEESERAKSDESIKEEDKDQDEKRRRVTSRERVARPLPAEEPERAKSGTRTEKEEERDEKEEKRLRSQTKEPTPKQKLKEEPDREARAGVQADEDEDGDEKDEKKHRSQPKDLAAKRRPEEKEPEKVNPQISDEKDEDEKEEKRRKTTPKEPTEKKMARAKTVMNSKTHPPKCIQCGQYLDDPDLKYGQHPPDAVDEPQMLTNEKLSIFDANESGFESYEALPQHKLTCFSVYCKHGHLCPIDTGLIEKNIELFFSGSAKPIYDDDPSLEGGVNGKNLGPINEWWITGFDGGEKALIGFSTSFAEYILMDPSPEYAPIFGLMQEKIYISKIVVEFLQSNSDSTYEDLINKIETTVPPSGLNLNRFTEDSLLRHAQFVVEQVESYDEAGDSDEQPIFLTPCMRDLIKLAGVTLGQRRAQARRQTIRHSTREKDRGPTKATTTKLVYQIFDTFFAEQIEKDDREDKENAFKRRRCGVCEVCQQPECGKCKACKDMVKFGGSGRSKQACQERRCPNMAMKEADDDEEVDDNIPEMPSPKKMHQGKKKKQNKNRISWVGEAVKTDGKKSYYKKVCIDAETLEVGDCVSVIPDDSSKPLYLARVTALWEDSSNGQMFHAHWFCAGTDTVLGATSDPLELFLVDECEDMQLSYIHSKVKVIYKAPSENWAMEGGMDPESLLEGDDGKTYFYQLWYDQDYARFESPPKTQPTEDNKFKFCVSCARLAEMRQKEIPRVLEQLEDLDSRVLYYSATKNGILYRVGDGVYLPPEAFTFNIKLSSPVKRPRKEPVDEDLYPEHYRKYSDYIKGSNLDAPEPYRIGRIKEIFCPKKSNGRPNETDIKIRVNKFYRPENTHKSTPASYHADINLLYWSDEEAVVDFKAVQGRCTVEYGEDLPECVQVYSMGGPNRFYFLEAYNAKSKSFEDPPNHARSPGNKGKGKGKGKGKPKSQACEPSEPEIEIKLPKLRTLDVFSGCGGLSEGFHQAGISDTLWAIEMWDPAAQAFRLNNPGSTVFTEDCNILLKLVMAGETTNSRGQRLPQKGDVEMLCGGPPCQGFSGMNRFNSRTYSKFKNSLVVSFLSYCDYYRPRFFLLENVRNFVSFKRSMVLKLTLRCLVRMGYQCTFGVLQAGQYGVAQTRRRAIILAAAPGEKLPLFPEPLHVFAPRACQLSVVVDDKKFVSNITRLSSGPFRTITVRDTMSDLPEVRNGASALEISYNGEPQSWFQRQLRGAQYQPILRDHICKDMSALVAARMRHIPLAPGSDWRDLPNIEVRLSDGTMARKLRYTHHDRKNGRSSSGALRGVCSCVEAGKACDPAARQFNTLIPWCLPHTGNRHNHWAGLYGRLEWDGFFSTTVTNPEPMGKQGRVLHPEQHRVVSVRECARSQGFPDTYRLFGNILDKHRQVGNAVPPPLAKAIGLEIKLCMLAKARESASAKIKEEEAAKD
Description: His-DNMT1 (182 kDa, human) was cloned, expressed and purified as described in Halby et al. (ChemBioChem 2012, 13, 157-65). The reaction was performed in a 10 μL total reaction volume in low volume NBS™ 384-well microplates (Corning), containing the tested compound (up to 1% DMSO), 1 μM of a SAM/[methyl-^3H] SAM (3 TBq/mmol, PerkinElmer) mix in a ratio of 3-to-1 (isotopic dilution 1*:3), 0.3 μM of biotinylated hemimethylated DNA duplex (5′-GATmCGCmCGATGmCGmCGAATmCGmCGAT mCGATGmCGAT-3′ and BIOT-5′-[…] ATC-3′), and 90 nM of DNMT1 in methylation buffer (20 mM HEPES pH 7.2, 1 mM EDTA, 50 mM KCl, 25 μg/mL BSA). The reaction was incubated at 37° C. for 2 hours. 8 μL are then transferred into a streptavidin 96-well scintillant coated Flashplate™ (PerkinElmer) containing 190 μL of 20 μM SAH in 50 mM Tris-HCl pH 7.4. The Flashplate™ was agitated at room temperature for 1 hour, washed three times with 200 μL of 0.05% Tween®-20 in 50 mM Tris-HCl pH 7.4, and read in 200 μL of 50 mM Tris-HCl pH 7.4 on TopCount NXT (PerkinElmer).

SMILES | inhibition at 10 µM ([1]; compound at 10 μM) [%] | inhibition at 32 µM ([1]; compound at 32 μM) [%] | pEC50 [1] | inhibition at 100 µM ([2]; compound at 100 μM) [%] | inhibition at 32 µM ([2]; compound at 32 μM) [%] | also measured
NS(=O)(=O)c1ccc(CCNc2ncnc3cc(OCC4CCN(CCNc5ccnc6ccccc56)CC4)ccc23)cc1 [AD, 4-(2-(4-sulfonamidophenyl)ethylamino)-7-((1-(2-(quinolin-4-ylamino)ethyl)piperidin-4-yl)methoxy)quinazoline] |  | 93 |  | 100 | 59 | 
O=[N+]([O-])c1ccc(CCNc2ncnc3cc(OCC4CCN(CCNc5ccnc6ccccc56)CC4)ccc23)cc1 [AE, 4-(2-(4-nitrophenyl)ethylamino)-7-((1-(2-(quinolin-4-ylamino)ethyl)piperidin-4-yl)methoxy)quinazoline] | 61 | 72 | 5.96 | 74 | 54 | 
CC(C)c1ccc(CCNc2ncnc3cc(OCC4CCN(CCNc5ccnc6ccccc56)CC4)ccc23)cc1 [AF, 4-(2-(4-isopropylphenyl)ethylamino)-7-((1-(2-(quinolin-4-ylamino)ethyl)piperidin-4-yl)methoxy)quinazoline] | 53 | 83 |  |  |  | 
c1ccc(CN2CCC(Nc3ncnc4cc(OCC5CCN(CCNc6ccnc7ccccc67)CC5)ccc34)CC2)cc1 [AL] | 72 | 93 | 5.10 | 81 | 81 | 
Clc1ccc2c(NCCN3CCC(COc4ccc5c(NCCCc6ccccc6)ncnc5c4)CC3)ccnc2c1 [AO, 4-((3-phenylpropyl)amino)-7-((1-(2-(7-chloroquinolin-4-ylamino)ethyl)piperidin-4-yl)methoxy)quinazoline] |  |  |  |  |  | inhibition at 10 µM [1]: 70%; inhibition at 32 µM [1]: 62%; inhibition at 100 µM [2]: 79%
COc1ccc2c(NCCN3CCC(COc4ccc5c(NCCCc6ccccc6)ncnc5c4)CC3)ccnc2c1 [AP, 4-((3-phenylpropyl)amino)-7-((1-(2-(7-methoxyquinolin-4-ylamino)ethyl)piperidin-4-yl)methoxy)quinazoline] |  |  | 5.59 |  |  | inhibition at 10 µM [1]: 70%; inhibition at 32 µM [1]: 80%; inhibition at 100 µM [2]: 90%
COc1cc2nccc(NCCN3CCC(COc4ccc5c(NCCCc6ccccc6)ncnc5c4)CC3)c2cc1OC [AQ, 4-((3-phenylpropyl)amino)-7-((1-(2-(6,7-dimethoxyquinolin-4-ylamino)ethyl)piperidin-4-yl)methoxy)quinazoline] |  |  |  |  |  | inhibition at 10 µM [1]: 95%; inhibition at 32 µM [1]: 95%; inhibition at 32 µM [2]: 61%; inhibition at 100 µM [2]: 100%
CN(CCN1CCC(COc2ccc3c(NCCCc4ccccc4)ncnc3c2)CC1)c1ccnc2ccccc12 [AR, 4-((3-phenylpropyl)amino)-7-((1-(2-(methyl(quinolin-4-yl)amino)ethyl)piperidin-4-yl)methoxy)quinazoline] |  |  | 5.33 |  |  | inhibition at 10 µM [1]: 66%; inhibition at 32 µM [1]: 66%
c1ccc(CCCNc2ncnc3cc(OCC4CCN(CCNc5ccc6ncccc6c5)CC4)ccc23)cc1 [AS, 4-((3-phenylpropyl)amino)-7-((1-(2-(quinolin-6-ylamino)ethyl)piperidin-4-yl)methoxy)quinazoline] |  |  |  |  |  | inhibition at 10 µM [1]: 60%; inhibition at 32 µM [1]: 60%
Nc1ccc(NCCN2CCC(COc3ccc4c(NCCCc5ccccc5)ncnc4c3)CC2)cc1 [Compound AN] |  | 65 |  |  |  | 
COCn1ccc(NCCN2CCC(COc3ccc4c(NCCCc5ccccc5)ncnc4c3)CC2)nc1=O [Compound K, 1-(methoxymethyl)-N^4-(2-(4-(((4-((3-phenylpropyl)amino)quinazolin-7-yl)oxy)methyl)piperidin-1-yl)ethyl)cytosine] | 10 | 44 |  |  |  | inhibition at 20 µM [1]: 40%

Further lines, with some results ahead:

inhibition at 10 µM ([1]; compound at 10 μM) [%] | inhibition at 32 µM ([1]; compound at 32 μM) [%] | pEC50 [1] | inhibition at 100 µM ([2]; compound at 100 μM) [%] | inhibition at 32 µM ([2]; compound at 32 μM) [%] | SMILES | also measured
82 | 91 | 5.57 | 97 |  | Clc1cccc(CCNc2ncnc3cc(OCC4CCN(CCNc5ccnc6ccccc56)CC4)ccc23)c1 [AA, 4-(2-(3-chlorophenyl)ethylamino)-7-((1-(2-(quinolin-4-ylamino)ethyl)piperidin-4-yl)methoxy)quinazoline] | 
 | 100 |  | 97 | 42 | Clc1ccccc1CCNc1ncnc2cc(OCC3CCN(CCNc4ccnc5ccccc45)CC3)ccc12 [AB, 4-(2-(2-chlorophenyl)ethylamino)-7-((1-(2-(quinolin-4-ylamino)ethyl)piperidin-4-yl)methoxy)quinazoline] | 
88 | 100 | 5.72 | 97 | 75 | Clc1ccc(CCNc2ncnc3cc(OCC4CCN(CCNc5ccnc6ccccc56)CC4)ccc23)cc1 [AC, 4-(2-(4-chlorophenyl)ethylamino)-7-((1-(2-(quinolin-4-ylamino)ethyl)piperidin-4-yl)methoxy)quinazoline] | 
82 | 100 |  | 59 | 77 | COc1ccc(CCNc2ncnc3cc(OCC4CCN(CCNc5ccnc6ccccc56)CC4)ccc23)cc1 [AG, 4-(2-(4-methoxyphenyl)ethylamino)-7-((1-(2-(quinolin-4-ylamino)ethyl)piperidin-4-yl)methoxy)quinazoline] | 
68 | 96 |  | 97 | 59 | Nc1ccc(CCNc2ncnc3cc(OCC4CCN(CCNc5ccnc6ccccc56)CC4)ccc23)cc1 [AH, 4-(2-(4-aminophenyl)ethylamino)-7-((1-(2-(quinolin-4-ylamino)ethyl)piperidin-4-yl)methoxy)quinazoline] | 
86 | 99 | 6.00 | 99 | 99 | c1ccc2c(NCCNc3ncnc4cc(OCC5CCN(CCNc6ccnc7ccccc67)CC5)ccc34)ccnc2c1 [AI] | 
76 | 5 |  | 93 | 93 | c1ccc(NCCNc2ncnc3cc(OCC4CCN(CCNc5ccnc6ccccc56)CC4)ccc23)cc1 [AK, 4-(2-(phenylamino)ethylamino)-7-((1-(2-(quinolin-4-ylamino)ethyl)piperidin-4-yl)methoxy)quinazoline] | 
 | 81 |  | 100 |  | c1ccc(CCCNc2ncnc3cc(OCC4CCN(CCNc5ccnc6ccccc56)C4)ccc23)cc1 (centres unmarked) [Compound AM, 4-((3-phenylpropyl)amino)-7-((1-(2-(quinolin-4-ylamino)ethyl)pyrrolidin-3-yl)methoxy)quinazoline] | 
60 | 85 | 5.00 | 97 |  | c1ccc(CCCNc2ncnc3cc(OCCCNCCCNc4ccnc5ccccc45)ccc23)cc1 [Compound A] | inhibition at 20 µM [1]: 76%
 |  |  | 86 |  | c1ccc(CCCNc2ncnc3cc(OCCCNCCCCNc4ccnc5ccccc45)ccc23)cc1 [Compound B] | inhibition at 20 µM [1]: 67%
 | 51 |  |  |  | O=CN(CCCNc1ccnc2ccccc12)CCCOc1ccc2c(NCCCc3ccccc3)ncnc2c1 [Compound E, N-(3-((4-((3-phenylpropyl)amino)quinazolin-7-yl)oxy)propyl)-N-(3-(quinolin-4-ylamino)propyl)formamide] | inhibition at 20 µM [1]: 27%
59 | 87 | 5.00 | 90 |  | c1ccc(CCCNc2ncnc3cc(OCCCNCCNc4ccnc5ccccc45)ccc23)cc1 [Compound F, 7-(3-((2-(quinolin-4-ylamino)ethyl)amino)propyloxy)-4-((3-phenylpropyl)amino)quinazoline] | inhibition at 20 µM [1]: 76%
